According to patent US5238953A, “N-imidazolyl derivatives of substituted tetrahydrocarbazole and cyclohept (B) indole” (Farmitalia Carlo Erba S.R.L., priority 1991, dated 1993):
pIC50: −log10 of the molar value. Where two headings read alike, the source gives them in different places.

Tests used:
TXA2 receptor = molecular target: T1, TXA2 receptor (Homo sapiens, UniProt P21731); assay: Displacement of [^3 H]-SQ 29.548 binding to washed human platelets (TxA2 antagonism); details: for affinity for the receptor: in words, compared with BM 13505 and BM 13177, binding test (washed human platelets); for pIC50: washed human platelets, [^3 H]-SQ 29,548 5 nM, 30 min at 25° C., read-out: ^3 H SQ 29548 binding displacement (washed human platelet) IC50
T1 construct: endogenous in cells; host or cells: washed human platelets from blood of healthy volunteers
T1 sequence (P21731 1-343): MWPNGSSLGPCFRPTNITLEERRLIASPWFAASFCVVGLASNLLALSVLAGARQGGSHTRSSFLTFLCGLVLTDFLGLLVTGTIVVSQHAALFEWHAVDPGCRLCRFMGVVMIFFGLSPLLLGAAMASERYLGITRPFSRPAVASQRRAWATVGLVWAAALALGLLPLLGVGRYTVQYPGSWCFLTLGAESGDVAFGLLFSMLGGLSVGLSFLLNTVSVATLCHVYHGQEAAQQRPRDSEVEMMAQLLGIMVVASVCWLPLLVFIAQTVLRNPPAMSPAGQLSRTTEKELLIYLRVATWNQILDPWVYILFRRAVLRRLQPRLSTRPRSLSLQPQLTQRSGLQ
Procedure: (§1) The effects of a representative group of compounds of the invention were evaluated, in comparison with known compounds, on TxB2 synthesis inhibition in vitro in whole blood of normal rats, and on TxA2 antagonism in a binding assay in washed human platelets.
Displacement of [^3 H]-SQ 29.548 binding to washed human platelets
Blood from healthy volunteers of both sexes who had not taken any medication for at least 10 days was collected into one-tenth volume of acid citrate dextrose containing indomethacin (28 μM). Platelet rich plasma (PRP), obtained by centrifugation of the blood at 200×g for 20 min, was washed twice (1000×g for 10 min). The platelets are then resuspended in Tyrode-Hepes buffer (pH 7.4) to a final concentration of […] and incubated for 0-60 min at 25° with [^3 H]-SQ 29,548 (5 nM). For displacement experiments various concentrations (10^-9 -10^-4 M) of competing ligands were added and incubated for 30 min at 25° C. […] After the incubation, 4 ml of ice-cold TRIS-HCl buffer (10 mM, pH 7.4) was added to each tube and the reaction mixture was immediately filtered by suction through a Whatman GF/C glass filter disc which was washed 2 times with ice-cold TRIS-HCl (4 ml) and counted for radioactivity by a Packard β-counter.
The binding data were analysed by computerized non-linear curve fitting using the Ligand program and expressed as IC50.

TxB2 synthesis = TxB2 synthesis inhibition in vitro in whole blood of normal rats; assay type: cell-based, normal Sprague Dawley rats; details: Rattus norvegicus, read-out: In vitro effect on TxB2 synthesis in normal rats, IC50 (whole blood)
Procedure: as §1
TxB2 Synthesis Inhibition
Blood was withdrawn from the abdominal aorta of normal Sprague Dawley rats (Charles River Italy) under light ether anaesthesia. The blood was immediately divided in portions of 0.5 ml and distributed in glass tubes each containing a concentration of the test compound, or of the reference compounds.
Samples were then allowed to clot for 1 hour at 37° C., centrifuged at 3000 rpm for 10 min, and serum collected and stored at -20° C. until assayed.

[1] = whole blood of normal rats, clotted 1 hour at 37° C.

Row | pIC50 (TXA2 receptor) | SMILES | affinity for the receptor (TXA2 receptor) | pIC50 (TxB2 synthesis; [1]) | pIC50 (TxB2 synthesis; 1 h)
1 | 8.22 | O=C(O)CC1CCCc2c(n(Cc3ccc(-n4ccnc4)cc3)c3ccc(F)cc23)C1 (stereo not shown) [FCE 27041, 2-Fluoro-5-[[4-(1H-imidazol-1-yl)phenyl]methyl]-5,6,7,8,9,10-hexahydrocyclohept[b]indole-7-acetic acid] | affinity for the receptor greater than those of compounds BM 13505 and BM 13177 | 6.70 | –
2 | – | O=C(O)c1ccc(OCCn2ccnc2)cc1 [Dazoxiben] | – | 5.92 | –
3 | 8.18 | O=C(O)CC1CCCc2c1n(Cc1ccc(-n3ccnc3)cc1)c1ccc(F)cc21 (stereo not shown) [FCE 26643, 6-Fluoro-9-[[4-(1H-imidazol-1-yl)phenyl]methyl]-1,2,3,4-tetrahydrocarbazol-1-yl-acetic acid] | affinity for the receptor greater than those of compounds BM 13505 and BM 13177 | – | –
4 | – | CC(=O)Oc1ccccc1C(=O)O [ASA, acetylsalicilic acid] | – | – | 4.51
